Source: PMC13266984 (Journal of medicinal chemistry, 2026)

Columns and labels:
[1] = target: T1, Human ALDH3A1 (Homo sapiens, UniProt P30838); test: ALDH3A1 biochemical assay (benzaldehyde/NADP+, diaphorase-resazurin readout, 1,536-well)
T1 sequence (P30838 1-453): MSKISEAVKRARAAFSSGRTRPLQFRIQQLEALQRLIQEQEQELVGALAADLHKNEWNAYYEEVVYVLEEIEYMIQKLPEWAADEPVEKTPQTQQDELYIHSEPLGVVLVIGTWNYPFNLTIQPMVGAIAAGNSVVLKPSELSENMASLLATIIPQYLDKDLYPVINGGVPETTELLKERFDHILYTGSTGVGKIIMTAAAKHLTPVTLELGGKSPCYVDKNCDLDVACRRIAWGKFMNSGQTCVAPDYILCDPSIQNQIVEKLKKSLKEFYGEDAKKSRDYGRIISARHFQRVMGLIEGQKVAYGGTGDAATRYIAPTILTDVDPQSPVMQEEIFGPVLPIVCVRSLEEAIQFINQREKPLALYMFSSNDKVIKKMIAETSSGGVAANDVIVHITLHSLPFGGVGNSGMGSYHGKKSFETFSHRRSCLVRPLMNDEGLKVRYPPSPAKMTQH

[2] = target: T2, OE19 (3A1) (Homo sapiens, UniProt P30838); test: Cellular ALDEFLUOR assay in OE19 cells (preferential ALDH3A1 expression)
T2 sequence (P30838 1-453): T1 sequence (P30838 1-453)

[3] = Table S5, biochemical curve class
[4] = Table S4, biochemical curve class
[5] = Table S2, in-house analogs, curve class
[6] = Table S1, primary screen, curve class

Structure (SMILES)	AC50 [1]	Efficacy ([1]; Table S2, in-house analogs)	CC-v2 [1, 5]	Efficacy ([1]; Table S1, primary screen)	CC-v2 [1, 6]	further results
O=C(NCc1ccc(C#CC2CC2)cc1)c1csc(N2CCN(c3cccc(C(F)(F)F)c3)CC2)n1 [NCGC01407809-01]	0.0141 µM					Efficacy ([1]; Table S5, biochemical): -101.87; CC-v2 [1, 3]: -1.1; AC50 [2]: 9.65 µM; Cell_Efficacy ([2]; Table S5, OE19 cells): -60.41; Cell_CC-v2 ([2]; Table S5, cellular curve class): -1.4
Cc1cccc(CNC(=O)c2csc(N3CCN(c4ccccc4Cl)CC3)n2)c1 [NCGC01211121-01]	0.91 µM					Efficacy ([1]; Table S4, biochemical): -88.53; CC-v2 [1, 4]: -1.1; AC50 [2]: 12.4 µM; Cell_Efficacy ([2]; Table S4, OE19 cells): -81.66; Cell_CC-v2 ([2]; Table S4, cellular curve class): -1.3
CC(C)(C)c1cccc(CNC(=O)c2csc(N3CCN(c4cccc(C(F)(F)F)c4)CC3)n2)c1 [NCGC01407765-01]	0.447 µM					Efficacy ([1]; Table S5, biochemical): -37.12; CC-v2 [1, 3]: -1.2; AC50 [2]: 0.282 µM; Cell_Efficacy ([2]; Table S5, OE19 cells): -76.28; Cell_CC-v2 ([2]; Table S5, cellular curve class): -1.2
COc1ccccc1N1CCN(c2nc(C(=O)NCc3cccc(C)c3)cs2)CC1 [NCGC01210996-01]	0.91 µM					Efficacy ([1]; Table S4, biochemical): -91.28; CC-v2 [1, 4]: -1.1; AC50 [2]: 0.05 µM; Cell_Efficacy ([2]; Table S4, OE19 cells): -98.32; Cell_CC-v2 ([2]; Table S4, cellular curve class): -1.3
Cc1cccc(CNC(=O)c2csc(N3CCN(c4cncc(Br)c4)CC3)n2)c1 [NCGC01212814-01]	1.29 µM					Efficacy ([1]; Table S4, biochemical): -92.59; CC-v2 [1, 4]: -1.1; Cell_Efficacy ([2]; Table S4, OE19 cells): 0.00; Cell_CC-v2 ([2]; Table S4, cellular curve class): 4
Cc1ccc2[nH]c(CO[C@H]3CN(Cc4ccc(F)c(F)c4)C[C@H]3F)nc2c1 [NCGC00392991-01]	4.47 µM	-26.14	-2.4			
CN1CCOc2c(C(=O)NCCC(N)=O)cc(-c3ccccc3O)cc21 [NCGC00417061-01]	0.63 µM	-48.22	-1.2			
Cc1ccc(-n2nc(C)c([C@@H]3C=C[C@@H](NCc4ccc(N(C)C)cc4)C3)c2C)cc1Cl [NCGC00395823-01]	14.1 µM	-101.87	-2.1			
COc1cccc(CN2CC(Oc3ccccc3C(=O)NC3CC3)C2)c1 [NCGC00458073-01]	39.8 µM			-51.44	-3	
COc1cccc(N2CCN(c3nc(C(=O)NCc4cccnc4)cs3)CC2)c1 [NCGC00430684-01]	14.1 µM	-68.54	-2.2			
O=C(NCc1ccccc1Cl)c1csc(N2CCN(c3ccc(F)cc3)CC2)n1 [NCGC00430734-01]	1.78 µM	-71.11	-1.2			
Cc1c(-c2cc(C(=O)NCc3cccnc3)c3c(c2)N(C)CCO3)cnn1C [NCGC00417124-01]	2.82 µM	-61.06	-2.2			
CN1CCOc2c(C(=O)NCCC(N)=O)cc(-c3ccc(CO)cc3)cc21 [NCGC00417044-01]	17.8 µM	-40.76	-2.2			
CN1CCOc2c(C(=O)NCc3cccnc3)cc(-c3cnn(C)c3)cc21 [NCGC00417099-01]	0.79 µM	-54.49	-1.4			
COc1ccc(N2CCN(c3nc(C(=O)NCc4ccccc4C)cs3)CC2)cc1 [NCGC00430666-01]	3.55 µM	-54.85	-1.2			
O=C(NCc1cccs1)c1csc(N2CCN(c3ccccc3F)CC2)n1 [NCGC00430730-01]	6.31 µM	-78.52	-1.2			
O=C(NCC(F)(F)F)c1cc(C2CCN(C(=O)c3cc(-c4ccco4)n[nH]3)CC2)n[nH]1 [NCGC00528999-01]	14.1 µM			-59.29	-2.4	
COc1ccc(-n2nc(C)c([C@@H]3C=C[C@@H](NCc4cccc(Cl)c4)C3)c2C)cc1 [NCGC00391691-01]	22.4 µM	-46.23	-2.2			
CNC(=O)c1cccc(-c2cnc3[nH]cc(CC(=O)N(C)c4ccccc4)c3c2)c1 [NCGC00412252-01]	0.25 µM	-26.81	-1.4			
CNC(=O)c1cccc(-c2cnc(Nc3cncnc3)c3c2CCO3)c1 [NCGC00412778-01]	44.7 µM			-38.45	-2.2	
COc1ccc(CN2C[C@@H](F)[C@@H](OCc3nc4cnccc4[nH]3)C2)cc1 [NCGC00391075-01]	15.8 µM	-69.78	-2.4			
COc1cccc(CNC(=O)CCNc2cnc3cnccn23)c1 [NCGC00433986-01]	14.1 µM			-81.82	-2.2	
O=C(NCc1cccc(F)c1)c1csc(N2CCN(c3ccc(Cl)cc3)CC2)n1 [Compound 1]	0.71 µM	-61.67	-1.2			

Structure (SMILES)	AC50 [1]	Efficacy ([1]; Table S2, in-house analogs)	CC-v2 [1, 5]	Efficacy ([1]; Table S1, primary screen)	CC-v2 [1, 6]	further results
Cc1cc(=O)[nH]c(N2CCC(NC(=O)NCc3ccco3)CC2)n1 [NCGC00530028-01]	20 µM			-57.15	-2.2	
Cc1cc(OC2CN(C(=O)c3cc(-c4ccc(F)cc4)n[nH]3)C2)n2ncnc2n1 [NCGC00531207-01]	14.1 µM			-93.27	-2.3	
Fc1ccc2[nH]c(CO[C@H]3CN(Cc4ccc5ccccc5n4)C[C@H]3F)nc2c1 [NCGC00393065-01]	0.45 µM	-92.90	-1.1			
COc1ccc(OCc2cc(C(=O)NC(CO)C(C)C)no2)c2ccccc12 (centres unmarked) [NCGC00427669-01]	3.98 µM			-69.95	-1.2	
COc1ccc(N2CCN(c3nc(C(=O)NCc4ccc(F)cc4F)cs3)CC2)cc1 [NCGC00430664-01]	4.47 µM	-32.83	-1.4			
COc1ccc(CNc2cc3c(cn2)CN(Cc2ccccc2)CCN3)cc1OC [NCGC00411020-01]	14.1 µM			-49.01	-2.2	
COc1ccc(NC(=O)N[C@@H]2C=C[C@@H](c3c(C)nn(CCC#N)c3C)C2)cc1 [NCGC00399960-01]	14.1 µM	-93.02	-1.1			
COc1cccc(-c2cc(C(=O)NCc3cnn(C)c3)c3c(c2)N(C)CCO3)c1OC [NCGC00417015-01]	17.8 µM	-40.16	-2.2			
O=C(Nc1ccc2c(c1)OCCO2)N1CCC(Cc2nnc(-c3ccncc3)[nH]2)C1 (centres unmarked) [NCGC00438506-01]	5.62 µM			-41.70	-2.4	
COc1cccc(CN2CC(C(=O)NCc3cc4ccccc4[nH]3)CCC2=O)c1 (centres unmarked) [NCGC00449252-01]	15.8 µM			-45.94	-2.2	
Cc1ccc2nc(CN3CCC(c4cccc(C#N)c4)CC3)cc(O)c2c1 [NCGC00449346-01]	4.47 µM			-31.03	-1.2	
Cc1nn(Cc2ccccc2)c(C)c1[C@@H]1C=C[C@@H](NC(=O)c2ccco2)C1 [NCGC00397524-03]	3.16 µM	-51.19	-1.2			
CC(=O)Nc1ccc(CN2CC(Oc3ccc4c(c3)OCO4)C2)cc1 [NCGC00373680-01]	7.94 µM			-29.03	-1.4	
CN1CCOc2c(C(=O)NCCC(N)=O)cc(-c3ccc(O)c(F)c3)cc21 [NCGC00417031-01]	14.1 µM	-80.78	-2.2			
CNC(=O)c1cccc(-c2cnc3[nH]cc(CC(=O)NCC(C)C)c3c2)c1 [NCGC00412294-01]	12.6 µM	-83.58	-1.1			
O=C(NCC1CC1)c1csc(N2CCN(c3ccccc3F)CC2)n1 [NCGC00430728-01]	28.2 µM	-37.07	-2.4			
CCCNC(=O)N1CC(Oc2ccc(-c3nc(C)no3)cc2)C1 [NCGC00441061-01]	31.6 µM			-48.80	-2.2	
COc1ccc(CCN2Cc3cc(NC(=O)Cc4cccs4)ccc3OCC2=O)cc1 [NCGC00475032-01]	15.8 µM			-43.09	-2.4	
COC(=O)c1ccc2nc(CO[C@H]3CN(C(=O)C4CCOCC4)C[C@H]3F)[nH]c2c1 [NCGC00392526-01]	28.2 µM	-67.89	-3			
COc1cccc(NC(=O)O[C@@H]2CO[C@H]3[C@@H]2OC[C@@H]3Nc2nccc(-c3ccccc3)n2)c1 [NCGC00398388-01]	28.2 µM			-30.64	-2.4	
O=C(NCc1ccccc1)c1csc(N2CCN(c3ccc(Cl)cc3)CC2)n1 [NCGC00430698-01]	2 µM	-75.40	-1.2			
Cc1ccc2[nH]c(CO[C@H]3CN(C4CCOCC4)C[C@H]3F)nc2c1 [NCGC00392993-01]	0.32 µM	-23.33	-1.4			
COc1ccc(NC2CCCN(C(=O)c3cn(CCCN)nn3)C2)cc1 (centres unmarked) [NCGC00439852-01]	0.89 µM			-61.76	-1.2	
